Assay results from patent US4492650A, “A54556 Antibiotics and process for production thereof” (Eli Lilly and Company, priority 1982, dated 1985).
≈ marks a conversion by molar mass, not a printed value. Where two headings read alike, the source gives them in different places. Bridge positions count the residues as written; N and C are the ends. Square brackets hold non-standard residues; d marks the D form. Peptide text beside a SMILES is read from it. * marks the point of attachment. ξ: configuration not given here. ξPro(4ξ-Me) = CC1CNC(C(=O)O)C1; NMeA = CN[CH](C)C(=O)O; X1 = O=C(/C=C/C=C/CO)*

Assays:
[1] = tested on: Streptococcus sp. (Group D) X66; experiment: Disc-plate sensitivity; assay type: cell-based; conditions: Streptococcus, second test, Table 13
Bacteroides fragilis 111 = experiment: MIC, agar-dilution method; assay type: cell-based
Source text: (§1) Antibiotic A54556 factors A, B, C, D, E, F, G, and H have been tested and found to be active against a number of anaerobic bacteria, as recorded in Table 14, which follows, the MIC values having been determined by the agar-dilution method.

[2] = tested on: Bacteroides fragilis 1877; experiment: MIC, agar-dilution method; assay type: cell-based
Source text: as §1

[3] = tested on: Bacteroides fragilis 1936B; experiment: MIC, agar-dilution method; assay type: cell-based
Source text: as §1

[4] = tested on: Bacteroides melaninogenicus 1856/28; experiment: MIC, agar-dilution method; assay type: cell-based; conditions: Prevotella intermedia
Source text: as §1

[5] = tested on: Bacteroides melaninogenicus 2736; experiment: MIC, agar-dilution method; assay type: cell-based
Source text: as §1

[6] = tested on: Bacteroides thetaiotaomicron 1438; experiment: MIC, agar-dilution method; assay type: cell-based
Source text: as §1

[7] = tested on: Clostridium difficile 2994; experiment: MIC, agar-dilution method; assay type: cell-based; conditions: Clostridioides difficile
Source text: as §1

[8] = tested on: Clostridium septicum 1128; experiment: MIC, agar-dilution method; assay type: cell-based
Source text: as §1

[9] = tested on: Eubacterium aerofaciens 1235; experiment: MIC, agar-dilution method; assay type: cell-based; conditions: Collinsella aerofaciens
Source text: as §1

[10] = tested on: Fusobacterium necrophorum 6054A; experiment: MIC, agar-dilution method; assay type: cell-based
Source text: as §1

[11] = tested on: Peptostreptococcus intermedius 1264; experiment: MIC, agar-dilution method; assay type: cell-based
Source text: as §1

[12] = tested on: Propionibacterium acnes 79; experiment: MIC, agar-dilution method; assay type: cell-based; conditions: Cutibacterium acnes
Source text: as §1

[13] = tested on: Clostridium perfringens 81; experiment: microbe, parasite or virus in culture; assay type: cell-based
[14] = tested on: Peptococcus asaccharolyticus 1302; experiment: MIC, agar-dilution method; assay type: cell-based; conditions: Peptoniphilus asaccharolyticus
Peptococcus prevoti 1281 = experiment: MIC, agar-dilution method; assay type: cell-based
[15] = tested on: Peptostreptococcus anaerobius 1428; experiment: MIC, agar-dilution method; assay type: cell-based
[16] = tested on: Bacteroides vulgatis 1211; experiment: MIC, agar-dilution method; assay type: cell-based
[17] = tested on: Bacteroides corrodens 1874; experiment: MIC, agar-dilution method; assay type: cell-based; conditions: Eikenella corrodens
[18] = tested on: Fusobacterium symbiosum 1470; experiment: MIC, agar-dilution method; assay type: cell-based
S. pyogenes = experiment: In vivo protection against experimental bacterial infection in mice; conditions: Streptococcus pyogenes, sc, two doses subcutaneously
Method: (§2) When two doses of test compound were administered subcutaneously to mice in illustrative infections, the activity is measured as an ED50 value [effective does in mg./kg. to protect fifty percent of the test animals: See Warren Wick et al., J. Bacteriol. 81, 233-235 (1961)]. The ED50 values for these antibiotic A54556 factors are recorded in Table 15, which follows.

Electrometric titration = assay type: physicochemical; conditions: 66 percent dimethylformamide in water
Source text: Antibiotic A54556 factor A is a tan, amorphous solid. […] As determined by electron impact and field desorption mass spectrometry, A54556 factor A has a molecular weight of 718.

anaerobic bacteria = experiment: Activity against anaerobic bacteria; assay type: cell-based; conditions: agar-dilution method
[19] = tested on: experimental bacterial infections; experiment: In vivo antimicrobial activity against experimental bacterial infections; conditions: mice, subcutaneously
Method: as §2

[20] = tested on: Staphylococcus aureus 3055; conditions: second test, Table 13, benzylpenicillin-susceptible
[21] = tested on: Streptococcus pyogenes (Group A) C203; conditions: second test, Table 13
[22] = tested on: Streptococcus pneumoniae Park I; conditions: second test, Table 13
[23] = tested on: Staphylococcus aureus V41; conditions: second test, Table 13, benzylpenicillin resistant
[24] = tested on: Staphylococcus epidermidis EPI1; conditions: second test, Table 13
Culture A54556 = experiment: Sensitivity of Culture A54556 to antibiotics, sensitivity discs on ISP medium No. 2 agar; assay type: cell-based, Streptomyces hawaiiensis NRRL 15010; further: key: +: sensitive, zones of inhibition; -: resistant, no zones of inhibition
Method: The sensitivity of Culture A54556 to several antibiotics at specific concentrations was determined with sensitivity discs padded onto the surface of plates containing ISP medium No. 2 agar seeded with 2% inoculum of Culture A54556.

CC1CC2C(=O)N(C)C(C)C(=O)NC(C)C(=O)N3CCCC3C(=O)OCC(NC(=O)C(Cc3ccccc3)NC(=O)/C=C/C=C/CO)C(=O)N2C1 (stereo not shown) [Factor H] (X1-FS[ξPro(4ξ-Me)][NMeA]AP; ester 2-C; configuration not given here)
zone of inhibition at 30 µg/disc ([1]; read-out: Zone diameter, 30 mcg./disc): 21 mm | zone of inhibition at 300 µg/disc ([1]; read-out: Zone diameter, 300 mcg./disc): 27 mm | MIC (Bacteroides fragilis 111): > 128 µg/mL | MIC [2]: > 128 µg/mL | MIC [3]: > 128 µg/mL | MIC [4]: > 128 µg/mL | MIC [5]: > 128 µg/mL | MIC [6]: > 128 µg/mL | MIC [7]: > 128 µg/mL | MIC [8]: > 128 µg/mL | MIC [9]: > 128 µg/mL | MIC [10]: > 128 µg/mL | MIC [11]: > 128 µg/mL | MIC [12]: > 128 µg/mL | MIC [13]: > 128 µg/mL | MIC [14]: > 128 µg/mL | MIC (Peptococcus prevoti 1281): > 128 µg/mL | MIC [15]: 128 µg/mL (≈ 181 µM) | MIC [16]: > 128 µg/mL | MIC [17]: > 128 µg/mL | MIC [18]: > 128 µg/mL | ED50 (S. pyogenes): 9.9 mg/kg | titratable groups (Electrometric titration): no titratable groups | activity against a number of anaerobic bacteria (anaerobic bacteria): active | in vivo antimicrobial activity against experimental bacterial infections [19]: have shown in vivo antimicrobial activity | Zone diameter ([20]; 30 mcg./disc): 8 mm. | Zone diameter ([20]; 300 mcg./disc): 11 mm. | Zone diameter ([21]; 30 mcg./disc): 30 mm. | Zone diameter ([21]; 300 mcg./disc): 32 mm. | Zone diameter ([22]; 30 mcg./disc): 25 mm. | Zone diameter ([22]; 300 mcg./disc): 36 mm. | Zone diameter ([23]; 30 mcg./disc): 10 mm. | Zone diameter ([23]; 300 mcg./disc): 14 mm. | Zone diameter ([24]; 30 mcg./disc): 12 mm. | Zone diameter ([24]; 300 mcg./disc): 24 mm.

CO[C@@H]1[C@@H](OC(N)=O)[C@@H](O)[C@H](Oc2ccc3c(O)c(NC(=O)c4ccc(O)c(CC=C(C)C)c4)c(=O)oc3c2C)OC1(C)C [Novobiocin]
Antibiotic Sensitivity of Culture A54556 (Culture A54556; 30 mcg. disc): +

CO[C@H]1/C=C/O[C@@]2(C)Oc3c(C)c(O)c4c(O)c(c(/C=N/N5CCN(C)CC5)c(O)c4c3C2=O)NC(=O)/C(C)=C\C=C\[C@H](C)[C@H](O)[C@@H](C)[C@@H](O)[C@@H](C)[C@H](OC(C)=O)[C@@H]1C [Rifampin]
Antibiotic Sensitivity of Culture A54556 (Culture A54556; 5 mcg. disc): +

[H]/N=C(/N)N[C@H]1[C@H](O)[C@@H](O)[C@H](O[C@@H]2O[C@@H](C)[C@](O)(C=O)[C@H]2O[C@@H]2O[C@@H](CO)[C@H](O)[C@@H](O)[C@@H]2NC)[C@@H](N/C(N)=N\[H])[C@@H]1O [Streptomycin]
Antibiotic Sensitivity of Culture A54556 (Culture A54556; 10 mcg. disc): +

CN(C)C1C(=O)C(C(N)=O)=C(O)C2(O)C(=O)C3=C(O)c4c(O)cccc4C(C)(O)C3CC12 (stereo not shown) [Tetracycline]
Antibiotic Sensitivity of Culture A54556 (Culture A54556; 30 mcg. disc): +

CN[C@H](CC(C)C)C(=O)N[C@H]1C(=O)N[C@@H](CC(N)=O)C(=O)N[C@H]2C(=O)N[C@H]3C(=O)N[C@H](C(=O)N[C@H](C(=O)O)c4cc(O)cc(O)c4-c4cc3ccc4O)[C@H](O)c3ccc(c(Cl)c3)Oc3cc2cc(c3O[C@@H]2O[C@H](CO)[C@@H](O)[C@H](O)[C@H]2O[C@H]2C[C@](C)(N)[C@H](O)[C@H](C)O2)Oc2ccc(cc2Cl)[C@H]1O [Vancomycin]
Antibiotic Sensitivity of Culture A54556 (Culture A54556; 30 mcg. disc): +
